Measured values: patent US10071034B2, “Solvent compositions” (Amyris, Inc., priority 2014, dated 2018)

Assay: Oxidative stability
Format: physicochemical
Description: For each sample, a test composition was stored for 104 weeks at 25° C. The amount of composition remaining was tested and compared to the amount at the initial time. Further samples were stored for 6 days at 60° C. The amount of composition remaining was tested and compared to the amount at the initial time.

Structure (SMILES): C=C(C)[C@H]1CC=C(C)CC1 [d-limonene]
- amount of composition remaining compared to initial (6 Days @ 60° C.): 52.3%
- amount of composition remaining compared to initial (104 Weeks @ 25° C.): 24.0%
- oxidative stability in comparison (d-limonene versus Example 2 composition): less than that of the present solvent embodiment
